A short description of data set [1]: Stability of the compound in acetonitrile up to 12 hrs by HPLC analysis. The format is physicochemical.
Data set [2] is described as follows: Stability of the compound in methanol:water (1:1) up to 12 hrs by HPLC analysis. The class given is physicochemical.
Data set [3] has as its system SMMC-7721. The data set can be described thus: Induction of apoptosis in human SMMC7721 cells assessed as viable cells at 4 uM after 72 hrs by Alexa Fluor 488 Annexin/propidium iodide staining-based flow cytometric analysis (reference value: 91.92%). The class given is functional. Conditions: SMMC-7721, 72 h, read-out: Activity.
The subject of data set [4] is SMMC-7721. In words: Induction of apoptosis in human SMMC7721 cells assessed as late apoptotic cells at 4 uM after 72 hrs by Alexa Fluor 488 Annexin/propidium iodide staining-based flow cytometric analysis (reference value: 0.62%). The format is functional.
The nature of data set [5]: Drug degradation in methanol after 10 hrs at 50 degC by HPLC analysis. The settings on record: read-out: Drug degradation. The class given is physicochemical.
The test system of data set [6] is SMMC-7721. The data set can be described thus: Induction of apoptosis in human SMMC7721 cells assessed as early apoptotic cells at 8 uM after 72 hrs by Alexa Fluor 488 Annexin/propidium iodide staining-based flow cytometric analysis (reference value: 0.70%). The format is functional.
The subject of data set [7] is SMMC-7721. In words: Antiproliferative activity against human SMMC7721 cells after 72 hrs by CCK8 assay. The settings on record: SMMC-7721, 72 h. The class given is functional, cell-based.
In data set [8] the test system is SMMC-7721. The data set can be described thus: Induction of apoptosis in human SMMC7721 cells assessed as late apoptotic cells at 8 uM after 72 hrs by Alexa Fluor 488 Annexin/propidium iodide staining-based flow cytometric analysis (reference value: 0.62%). The format is functional.
In data set [9] the test system is SMMC-7721. In words: Cell cycle arrest in human SMMC7721 cells assessed as accumulation at S phase at 8 uM after 72 hrs by RNase/propidium iodide staining-based flow cytometric analysis (reference value: 7.96%). The format is functional.
Data set [10] deals with SMMC-7721. The data set can be described thus: Antiproliferative activity against human SMMC7721 cells assessed as inhibition of cell proliferation at 32 uM after 72 hrs by CCK8 assay. The format is functional. The settings on record: SMMC-7721, 72 h.
A further data set deals with HCT-116. In words: cells. Conditions: Homo sapiens, HCT-116, 72 h.
Data set [11] relates to SMMC-7721. The data set can be described thus: Induction of apoptosis in human SMMC7721 cells assessed as early apoptotic cells at 4 uM after 72 hrs by Alexa Fluor 488 Annexin/propidium iodide staining-based flow cytometric analysis (reference value: 0.70%). The class given is functional.
Another data set deals with A549. In words: cells. The settings on record: Homo sapiens, A549, 72 h.
Data set [12] concerns SMMC-7721. The data set can be described thus: Cell cycle arrest in human SMMC7721 cells assessed as accumulation at G0/G1 phase at 4 uM after 72 hrs by RNase/propidium iodide staining-based flow cytometric analysis (reference value: 67.26%). The format is functional.
Data set [13] has as its system SMMC-7721. In words: Inhibition of colony formation in human SMMC7721 cells at 2 to 8 uM after 7 days by crystal violet staining-based assay. The class given is functional, cell-based.
Data set [14] deals with SMMC-7721. The data set can be described thus: Induction of apoptosis in human SMMC7721 cells assessed as necrotic cells at 8 uM after 72 hrs by Alexa Fluor 488 Annexin/propidium iodide staining-based flow cytometric analysis (reference value: […]). The format is functional.
In data set [15] the test system is SMMC-7721. The data set can be described thus: Cell cycle arrest in human SMMC7721 cells assessed as accumulation at G0/G1 phase at 8 uM after 72 hrs by RNase/propidium iodide staining-based flow cytometric analysis (reference value: 67.26%). The class given is functional.
In a further data set the test system is HeLa. In words: Antiproliferative activity against human HeLa cells after 72 hrs by CCK8 assay. The format is functional, cell-based.
For data set [16], the system named is SMMC-7721. The data set can be described thus: Antiproliferative activity against human SMMC7721 cells assessed as inhibition of cell proliferation at 16 uM after 72 hrs by CCK8 assay. The format is functional. Conditions: SMMC-7721, 72 h.
Data set [17] relates to SMMC-7721. In words: Cell cycle arrest in human SMMC7721 cells assessed as accumulation at G2/M phase at 4 uM after 72 hrs by RNase/propidium iodide staining-based flow cytometric analysis (reference value: 24.78%). The class given is functional.
The subject of data set [18] is A-375. In words: Antiproliferative activity against human A375 cells after 72 hrs by CCK8 assay. The class given is functional, cell-based. The settings on record: A-375, 72 h.
For data set [19], the system named is A-375. The data set can be described thus: Antiproliferative activity against human A375 cells assessed as inhibition of cell proliferation at 32 uM after 72 hrs by CCK8 assay. The class given is functional. Conditions: A-375, 72 h.
Data set [20] concerns A-375. The data set can be described thus: Antiproliferative activity against human A375 cells assessed as inhibition of cell proliferation at 16 uM after 72 hrs by CCK8 assay. The class given is functional. The settings on record: A-375, 72 h.
The subject of data set [21] is SMMC-7721. The data set can be described thus: Cell cycle arrest in human SMMC7721 cells assessed as accumulation at G2/M phase at 8 uM after 72 hrs by RNase/propidium iodide staining-based flow cytometric analysis (reference value: 24.78%). The format is functional.
The subject of data set [22] is SMMC-7721. In words: Cell cycle arrest in human SMMC7721 cells assessed as accumulation at S phase at 4 uM after 72 hrs by RNase/propidium iodide staining-based flow cytometric analysis (reference value: 7.96%). The class given is functional.
Data set [23] concerns SMMC-7721. In words: Induction of apoptosis in human SMMC7721 cells assessed as necrotic cells at 4 uM after 72 hrs by Alexa Fluor 488 Annexin/propidium iodide staining-based flow cytometric analysis (reference value: […]). The class given is functional.
The subject of data set [24] is SMMC-7721. In words: Induction of apoptosis in human SMMC7721 cells assessed as viable cells at 8 uM after 72 hrs by Alexa Fluor 488 Annexin/propidium iodide staining-based flow cytometric analysis (reference value: 91.92%). The format is functional. The settings on record: SMMC-7721, 72 h, read-out: Activity.

pIC50: −log10 of the molar value. The source made the active and inactive calls. The rule behind the calls is not given here. Some results are limits rather than exact numbers.

Description for A549: Antiproliferative activity against human A549 cells after 72 hrs by CCK8 assay
Description for HCT-116: Antiproliferative activity against human HCT116 cells after 72 hrs by CCK8 assay

In the case of `CC(=O)NCCSC(=S)NCC/C=C/[S+](C)[O-]` (stereo unspecified), the Stability entry in data set [1] and in [2] was “Stable” each time.

`C[S+]([O-])CCCCN=C=S` (stereo unspecified) [SULFORAPHANE]: the viability at 4 µM in the data set with SMMC-7721 [3] worked out at 88.4%. The Activity with SMMC-7721 [4] was 2.82%; in the data set on SMMC-7721 [6], 14.43%; in the data set on SMMC-7721 [8], 9.09%; with SMMC-7721 [9] it was 5.46%; in the data set with SMMC-7721 [11], 4.66%; in the data set on SMMC-7721 [12], 68.06%. Also, the Activity was found to be 9.59% in the data set on SMMC-7721 [14]; 66.19% with SMMC-7721 [15]; 26.8% in the data set with SMMC-7721 [17]; 28.35% in the data set with SMMC-7721 [21]; 5.41% in the data set with SMMC-7721 [22]; 4.14% in the data set on SMMC-7721 [23]. For the same compound, the degraded at 10 h in data set [5] was determined as 60%. Besides, the pIC50 in the data set on SMMC-7721 [7] was 5.10; in the data set with HCT-116, 4.43; with A549, 4.92; in the data set with HeLa, 4.18; in the data set on A-375 [18], 4.61. Moreover, the figures for the inhibition at 32 µM with SMMC-7721 [10] and in the data set with A-375 [19] were 88.3% and 77.3%, respectively. In addition, the inhibition entry in the data set on SMMC-7721 [13] was “Active”. Besides, the inhibition at 16 µM with SMMC-7721 [16] was 80.5%; with A-375 [20] it was 54%. For the same compound, the viability at 8 µM with SMMC-7721 [24] turned out to be 66.9%.

`C[S+]([O-])/C=C/CCN=C=S` (stereo unspecified): in [5], the degraded at 10 h was found to be 60%.

As to `CC(=O)NCCSC(=S)NCCCC[S+](C)[O-]` (stereo unspecified), the Stability entry in data set [1] and in data set [2] was “Stable” in each case.

For the compound `COc1ccc(SC(=S)NCCCC[S+](C)[O-])cc1` (stereo unspecified), in data set [5], the degraded at 10 h was less than 6%. The Stability result in [1] and in data set [2] was “Unstable” throughout.

Regarding `COc1ccc(SC(=S)NCC/C=C/[S+](C)[O-])cc1` (stereo unspecified), the degraded at 10 h in data set [5] is 25%. In addition, the Stability result in data set [1] and in [2] was “Unstable” throughout.

Source of the values: ChEMBL document CHEMBL4261604, “Design, synthesis and biological evaluation of novel carbamodithioates as anti-proliferative agents against human cancer cells” (Eur J Med Chem, 2018).
